≈ marks a conversion by molar mass, not a printed value. Non-standard residues stand in square brackets, D forms with d. Residues, ends and D or L forms follow the SMILES beside them. *: point of attachment. Tetradecanoyl(3R-OH) = CCCCCCCCCCC[C@@H](O)CC(=O)*; Tetradecanoyl(3S-OH) = CCCCCCCCCCC[C@H](O)CC(=O)*
Assays:
[1] = system: Staphylococcus aureus ATCC 29213; type: cell-based
Excerpt: (§1) Analogs were serially diluted two-fold from stock solutions.

[2] = system: Staphylococcus aureus ATCC 43300; type: cell-based; details: for MIC: ATCC 43300; for fold decrease in activity against the methicillin-resistant strain: MIC against MRSA ATCC 43300 compared with MSSA ATCC 29213
Excerpt: as §1

[3] = system: Bacillus subtilis ATCC 23857; assay: MIC, broth microdilution; type: cell-based; details: 37 °C, 18–20 h, triplicate
Excerpt: as §1

[4] = system: Escherichia coli ATCC 25922; assay: MIC, broth microdilution; type: cell-based; details: 37 °C, 18–20 h, triplicate
Excerpt: as §1

[5] = system: Pseudomonas aeruginosa ATCC 27853; assay: MIC, broth microdilution; type: cell-based; details: 37 °C, 18–20 h, triplicate
Excerpt: as §1

[6] = system: Salmonella enterica ATCC 14028; assay: MIC, broth microdilution; type: cell-based; details: 37 °C, 18–20 h, triplicate
Excerpt: as §1

S. aureus strain 4-121 = details: broth microdilution, triplicate; isolate 4-121, no resistance profile listed
Excerpt: (§2) The bacterial strains used in this study included S. aureus ATCC 29213 and ATCC 43300, B. subtilis ATCC […], E. coli ATCC 25922, P. aeruginosa ATCC 27853, and S. enterica serovar Typhimurium ATCC 14028, all of which were purchased from Cedarlane, Canada. Additionally, a collection of 19 S. aureus strains, ranging from antibiotic-sensitive to multidrug-resistant, and originating from clinical intramammary infections (IMI), was selected from the Mastitis Pathogen Culture Collection of the Canadian Bovine Mastitis Research Network (Université de Montréal, St-Hyacinthe, QC, Canada). These strains, previously used in other studies, were also included in this work. S. aureus ATCC 29213 and B. subtilis ATCC 6633 were cultured in Tryptic Soy Broth (TSB) (Difco^TM, Becton, Dickenson & Company, Spark, MD, USA). E. coli ATCC 25922 and P. aeruginosa ATCC 27853 were grown in Luria–Bertani (LB) broth (Fisher Scientific, Fair Lawn, NJ, USA). S. enterica serovar Typhimurium ATCC 14028 was propagated in Nutrient Broth (NB) (Oxoid, Basingstoke, UK). All bacterial cultures were incubated overnight at 37 °C before use and during the performance of assays.
(§3) MIC assays were performed using the broth microdilution method in 96-well plates. Analogs were serially diluted two-fold from stock solutions. The plates were incubated overnight at 37 °C and bacterial growth was monitored by measuring the absorbance at 595 nm over 18–20 h and the assay was performed in triplicate.

S. aureus strain 4-131 = details: broth microdilution, triplicate; isolate 4-131, no resistance profile listed
Excerpt: as §2, §3

S. aureus strain 4-133 = details: broth microdilution, triplicate; isolate 4-133, resistance PEN-CEF-CTX-FOX-CIP-CHL-KAN-GEN
Excerpt: as §2, §3

S. aureus strain 4-134 = details: broth microdilution, triplicate; isolate 4-134, resistance PEN-VAN-CEF-CTX-FOX-ERY-CC-TET-KAN-GEN-STR
Excerpt: as §2, §3

S. aureus strain 4-138 = details: broth microdilution, triplicate; isolate 4-138, no resistance profile listed
Excerpt: as §2, §3

S. aureus strain 4-139 = details: broth microdilution, triplicate; isolate 4-139, resistance PEN-ERY-CC-TET-KAN
Excerpt: as §2, §3

S. aureus strain 4-140 = details: broth microdilution, triplicate; isolate 4-140, resistance TET
Excerpt: as §2, §3

S. aureus strain 4-144 = details: broth microdilution, triplicate; isolate 4-144, resistance PEN-AMC-CEF-CTX-FOX-CIP-CHL-ERY-TET
Excerpt: as §2, §3

S. aureus strain 4-145 = details: broth microdilution, triplicate; isolate 4-145, no resistance profile listed
Excerpt: as §2, §3

S. aureus strain 4-153 = details: broth microdilution, triplicate; isolate 4-153, no resistance profile listed
Excerpt: as §2, §3

S. aureus strain 4-156 = details: broth microdilution, triplicate; isolate 4-156, no resistance profile listed
Excerpt: as §2, §3

S. aureus strain 4-157 = details: broth microdilution, triplicate; isolate 4-157, no resistance profile listed
Excerpt: as §2, §3

S. aureus strain 4-159 = details: broth microdilution, triplicate; isolate 4-159, no resistance profile listed
Excerpt: as §2, §3

S. aureus strain 4-162 = details: broth microdilution, triplicate; isolate 4-162, no resistance profile listed
Excerpt: as §2, §3

S. aureus strain 4-170 = details: broth microdilution, triplicate; isolate 4-170, no resistance profile listed
Excerpt: as §2, §3

S. aureus strain 4-172 = details: broth microdilution, triplicate; isolate 4-172, resistance PEN-AMC-CEF-CTX-FOX
Excerpt: as §2, §3

S. aureus strain 4-173 = details: broth microdilution, triplicate; isolate 4-173, no resistance profile listed
Excerpt: as §2, §3

S. aureus strain A-165 = details: broth microdilution, triplicate; isolate A-165, resistance PEN-CEF-CTX-FOX-CIP-CC-KAN-GEN-STR-P/N
Excerpt: as §2, §3

S. aureus strain 4-171 = type: cell-based, Staphylococcus aureus; details: broth microdilution, triplicate; isolate 4-171, resistance PEN-AMC-CEF-CTX-FOX
Excerpt: as §1

SMILES | MIC [1] [µg/mL] | MIC [2] [µg/mL] | MIC [3] | MIC [4] | MIC [5] | MIC [6] | MIC (S. aureus strain 4-121) [µg/mL] | MIC (S. aureus strain 4-131) [µg/mL] | MIC (S. aureus strain 4-133) [µg/mL] | MIC (S. aureus strain 4-134) [µg/mL] | MIC (S. aureus strain 4-138) [µg/mL] | MIC (S. aureus strain 4-139) [µg/mL] | MIC (S. aureus strain 4-140) [µg/mL] | MIC (S. aureus strain 4-144) [µg/mL] | MIC (S. aureus strain 4-145) [µg/mL] | MIC (S. aureus strain 4-153) [µg/mL] | MIC (S. aureus strain 4-156) [µg/mL] | MIC (S. aureus strain 4-157) [µg/mL] | MIC (S. aureus strain 4-159) [µg/mL] | MIC (S. aureus strain 4-162) [µg/mL] | further results
CCCCCCCCCCC[C@@H](O)CC(=O)N[C@@H](Cc1c[nH]c2ccccc12)C(=O)N[C@@H](CO)C(=O)N[C@H](Cc1c[nH]c2ccccc12)C(=O)N[C@@H](Cc1ccccc1)C(=O)N[C@@H](C(=O)N[C@H](C(=O)N[C@H](C(=O)O)C(C)C)C(C)C)[C@H](C)O [12R] ({Tetradecanoyl(3R-OH)}-WS[dW]F[dT]VV-OH) | 16 (≈ 13.9 µM) | 16 (≈ 13.9 µM) | - (No antimicrobial activity was detected up to 256 µg/mL) | - (No antimicrobial activity was detected up to 256 µg/mL) | - (No antimicrobial activity was detected up to 256 µg/mL) | - (No antimicrobial activity was detected up to 256 µg/mL) | 32 (≈ 27.8 µM) | >256 | 256 (≈ 223 µM) | >256 | 4 (≈ 3.48 µM) | 4 (≈ 3.48 µM) | 8 (≈ 6.95 µM) | 8 (≈ 6.95 µM) | 16 (≈ 13.9 µM) | 16 (≈ 13.9 µM) | 4 (≈ 3.48 µM) | 16 (≈ 13.9 µM) | 8 (≈ 6.95 µM) | >256 | MIC (S. aureus strain 4-170): 4 µg/mL (≈ 3.48 µM); MIC (S. aureus strain 4-172): 8 µg/mL (≈ 6.95 µM); MIC (S. aureus strain 4-173): 8 µg/mL (≈ 6.95 µM); MIC (S. aureus strain A-165): 256 µg/mL (≈ 223 µM); MIC (S. aureus strain 4-171): 2 µg/mL (≈ 1.74 µM)
CCCCCCCCCCC[C@H](O)CC(=O)N[C@@H](Cc1c[nH]c2ccccc12)C(=O)N[C@@H](CO)C(=O)N[C@H](Cc1c[nH]c2ccccc12)C(=O)N[C@@H](Cc1ccccc1)C(=O)N[C@@H](C(=O)N[C@H](C(=O)N[C@H](C(=O)O)C(C)C)C(C)C)[C@H](C)O [12S] ({Tetradecanoyl(3S-OH)}-WS[dW]F[dT]VV-OH) | 8 (≈ 6.95 µM) | 16 (≈ 13.9 µM) | - (No antimicrobial activity was detected up to 256 µg/mL) | - (No antimicrobial activity was detected up to 256 µg/mL) | - (No antimicrobial activity was detected up to 256 µg/mL) | - (No antimicrobial activity was detected up to 256 µg/mL) | 32 (≈ 27.8 µM) | >256 | 256 (≈ 223 µM) | >256 | 4 (≈ 3.48 µM) | 8 (≈ 6.95 µM) | 16 (≈ 13.9 µM) | 16 (≈ 13.9 µM) | 32 (≈ 27.8 µM) | 16 (≈ 13.9 µM) | 8 (≈ 6.95 µM) | 16 (≈ 13.9 µM) | 16 (≈ 13.9 µM) | >256 | MIC (S. aureus strain 4-170): 8 µg/mL (≈ 6.95 µM); MIC (S. aureus strain 4-172): 8 µg/mL (≈ 6.95 µM); MIC (S. aureus strain 4-173): 16 µg/mL (≈ 13.9 µM); MIC (S. aureus strain A-165): 256 µg/mL (≈ 223 µM); MIC (S. aureus strain 4-171): 1 µg/mL (≈ 0.869 µM)
CCCCCCCCCCC[C@@H](O)CC(=O)N[C@@H](Cc1c[nH]c2ccccc12)C(=O)N[C@@H](CO)C(=O)N[C@H](Cc1c[nH]c2ccccc12)C(=O)N[C@@H](Cc1ccccc1)C(=O)N[C@@H](C(=O)N[C@@H](C)C(=O)N[C@H](C(=O)O)C(C)C)[C@H](C)O [13R] ({Tetradecanoyl(3R-OH)}-WS[dW]F[dT]AV-OH) | 4 (≈ 3.56 µM) | 128 (≈ 114 µM) | - (No antimicrobial activity was detected up to 256 µg/mL) | - (No antimicrobial activity was detected up to 256 µg/mL) | - (No antimicrobial activity was detected up to 256 µg/mL) | - (No antimicrobial activity was detected up to 256 µg/mL) | 256 (≈ 228 µM) | >256 | >256 | >256 | 16 (≈ 14.3 µM) | 8 (≈ 7.13 µM) | 16 (≈ 14.3 µM) | 8 (≈ 7.13 µM) | 16 (≈ 14.3 µM) | 32 (≈ 28.5 µM) | 16 (≈ 14.3 µM) | 32 (≈ 28.5 µM) | 16 (≈ 14.3 µM) | >256 | fold decrease in activity against the methicillin-resistant strain [2]: 32 fold; MIC (S. aureus strain 4-170): 8 µg/mL (≈ 7.13 µM); MIC (S. aureus strain 4-172): 8 µg/mL (≈ 7.13 µM); MIC (S. aureus strain 4-173): 8 µg/mL (≈ 7.13 µM); MIC (S. aureus strain A-165): >256 µg/mL; MIC (S. aureus strain 4-171): 0.5 µg/mL (≈ 0.445 µM)
CCCCCCCCCCC[C@H](O)CC(=O)N[C@@H](Cc1c[nH]c2ccccc12)C(=O)N[C@@H](CO)C(=O)N[C@H](Cc1c[nH]c2ccccc12)C(=O)N[C@@H](Cc1ccccc1)C(=O)N[C@@H](C(=O)N[C@@H](C)C(=O)N[C@H](C(=O)O)C(C)C)[C@H](C)O [13S] ({Tetradecanoyl(3S-OH)}-WS[dW]F[dT]AV-OH) | 2 (≈ 1.78 µM) | 64 (≈ 57 µM) | - (No antimicrobial activity was detected up to 256 µg/mL) | - (No antimicrobial activity was detected up to 256 µg/mL) | - (No antimicrobial activity was detected up to 256 µg/mL) | - (No antimicrobial activity was detected up to 256 µg/mL) | 256 (≈ 228 µM) | >256 | >256 | >256 | 16 (≈ 14.3 µM) | 8 (≈ 7.13 µM) | 16 (≈ 14.3 µM) | 16 (≈ 14.3 µM) | 32 (≈ 28.5 µM) | 32 (≈ 28.5 µM) | 8 (≈ 7.13 µM) | 32 (≈ 28.5 µM) | 8 (≈ 7.13 µM) | >256 | fold decrease in activity against the methicillin-resistant strain [2]: 32 fold; MIC (S. aureus strain 4-170): 8 µg/mL (≈ 7.13 µM); MIC (S. aureus strain 4-172): 8 µg/mL (≈ 7.13 µM); MIC (S. aureus strain 4-173): 8 µg/mL (≈ 7.13 µM); MIC (S. aureus strain A-165): >256 µg/mL; MIC (S. aureus strain 4-171): 8 µg/mL (≈ 7.13 µM)

Source: article PMC12024397, “Structure–Activity Study of the Antimicrobial Lipopeptide Humimycin A and Screening Against Multidrug-Resistant Staphylococcus aureus” (Antibiotics, 2025)
